The target of assay [1] is T1, fusion protein containing GAL4-DNA-binding domain and ERR full-length (Homo sapiens, UniProt P11474).
T1 construct: expressed in transfected cells; host or cells: 293T cells
T1 sequence (P11474 1-423): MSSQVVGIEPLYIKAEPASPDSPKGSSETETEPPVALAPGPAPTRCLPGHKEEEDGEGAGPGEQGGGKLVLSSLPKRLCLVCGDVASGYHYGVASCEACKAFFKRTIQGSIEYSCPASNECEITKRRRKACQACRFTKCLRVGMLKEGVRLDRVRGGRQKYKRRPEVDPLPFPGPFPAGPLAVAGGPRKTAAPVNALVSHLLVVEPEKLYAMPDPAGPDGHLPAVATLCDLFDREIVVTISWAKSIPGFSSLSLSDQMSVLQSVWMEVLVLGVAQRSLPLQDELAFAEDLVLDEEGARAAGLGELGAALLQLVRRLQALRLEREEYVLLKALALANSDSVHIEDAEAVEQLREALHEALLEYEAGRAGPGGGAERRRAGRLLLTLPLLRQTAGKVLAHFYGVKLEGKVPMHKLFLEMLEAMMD
Kind of assay: Reporter assay system using 293T cells (GAL4-ERR luciferase, inverse agonist activity). The format is cell-based. The note with it: compound final concentration 3 μM, no compound = 0%, 10 μM XCT-790 = 100%; for inhibition at 3 µM: HEK-293T, read-out: inhibition rate (%) at 3 μM. As for the experimental part: Experimental Example 2 Compound Evaluation in Reporter Assay System Using 293T Cells
293T cells derived from human kidney were seeded in a 150 cm^2 flask by 6,000,000 cells, and cultured in a medium (DMEM medium containing 10% inactivated Fetal Bovine Serum sterile filtered (FBS), […] Gentamicin, 10 mM HEPES buffer (pH 7.4)) at 37° C. in the presence of 5% CO2 for 1 day.
Then, vector DNA having a gene encoding a fusion protein, containing GAL4-DNA-binding domain and ERR full-length and a vector DNA wherein luciferase gene is fused at the downstream of GAL4-binding-sequence were cotransfected by a lipofection method, and the cells were cultured at 37° C. in the presence of 5% CO2 for 1 day. The cells were recovered, sown in a 384 well plate by 15,000 cells, and cultured at 37° C. in the presence of 5% CO2 for 3 hrs. Furthermore, 50 μM N-[5-(trifluoromethyl)-1,3,4-thiadiazol-2-yl]-2-cyano-3-[3-methoxy-4-[2,4-di(trifluoromethyl)benzyloxy]phenyl]propenamide (XCT-790) (final concentration 10 μM) or 15 μM compound (final concentration 3 μM) was added, and the cells were cultured at 37° C. in the presence of 5% CO2 for 1 day. The luciferase activity was measured by using multiplate reader Envision (Perkin Elmer Inc.). The inverse agonist activity of the compound was calculated in percentage with the luciferase activity inhibited by no addition of compound as 0%, and with addition of final concentration 10 μM of XCT-790 as 100%.
(In general: A reporter such as luciferase makes a cellular process visible.)

Assay [2] has as its target T2, GST-ERR-α ligand-binding domain (Homo sapiens, UniProt P11474).
T2 sequence (P11474 193-421 limits assumed): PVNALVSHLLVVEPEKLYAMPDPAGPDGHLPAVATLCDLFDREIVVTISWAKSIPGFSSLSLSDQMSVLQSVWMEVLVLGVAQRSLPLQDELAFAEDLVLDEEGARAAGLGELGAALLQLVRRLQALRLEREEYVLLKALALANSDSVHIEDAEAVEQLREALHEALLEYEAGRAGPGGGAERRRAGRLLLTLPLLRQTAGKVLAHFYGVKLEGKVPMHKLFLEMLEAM
The assay is described as follows: HTRF assay system using ERR-α ligand-binding domain (inverse agonist activity, biotinylated SRC-1 (676-700) peptide). The format is biochemical. Particulars: compound final concentration 30 μM, 665/620 ratio, no compound = 0%, 10 μM XCT-790 = 100%; for inhibition at 30 µM: read-out: inhibition rate (%) at 30 μM. The procedure:
Experimental Example 1 Compound Evaluation in HTRF Assay System Using ERR-α Ligand-Binding Domain
An assay buffer (25 mM HEPES, 100 mM NaCl, 1 mM DTT, 0.1% BSA) containing 5 nM GST-ERR-α ligand-binding domain (final concentration 1.25 nM) was added to a 384 well plate, then 40 μM N-[5-(trifluoromethyl)-1,3,4-thiadiazol-2-yl]-2-cyano-3-[3-methoxy-4-[2,4-di(trifluoromethyl)benzyloxy]phenyl]propenamide (XCT-790) (final concentration 10 μM), or 120 μM compound (final concentration 30 μM) was added. Furthermore, an assay buffer containing XL665 conjugated Streptavidin, Eu^3+ criptate conjugated GST antibody and 200 nM biotinylated SRC-1 (676-700) (final concentration 100 nM) was added, and the mixture was reacted at room temperature for 2 hr. Using Multiplate reader Envision (Perkin Elmer Inc.), after excitation at 320 nm, fluorescence values at 620 nm and 665 nm were measured. The inverse agonist activity of the compound was calculated in percentage with the 665/620 ratio value inhibited by no addition of compound as 0%, and with addition of final concentration 10 μM of XCT-790 as 100%.
Background: In TR-FRET formats the signal depends on donor and acceptor labels being close together.

The structures appear in SMILES notation. Where a name gives a salt, the structure may show the parent alone.

From US8772277B2, “Nitrogen-containing heterocyclic compound” (Takeda Pharmaceutical Company Limited, priority 2011, dated 2014) come the findings set out here.

By inhibition is commonly meant the change of the read-out against control, counted positive when it falls.

As to `CNC1=NC(=O)S/C1=C\C1CCN(Cc2ccc(C(F)(F)F)cc2C(F)(F)F)CC1` [Example 3, (5Z)-5-({1-[2,4-bis(trifluoromethyl)benzyl]piperidin-4-yl}methylidene)-4-(methylamino)-1,3-thiazol-2(5H)-one], the inhibition at 3 µM in assay [1] was found to be 88%.

Consider `O=C1N=C(NCCOCCO)/C(=C/C2CCN(Cc3ccc(C(F)(F)F)cc3C(F)(F)F)CC2)S1` [Example 8, (5Z)-5-({1-[2,4-bis(trifluoromethyl)benzyl]piperidin-4-yl}methylidene)-4-{[2-(2-hydroxyethoxy)ethyl]amino}-1,3-thiazol-2(5H)-one], for which, in assay [2], the “inhibition rate (%) at 30 μM” value was determined as 97%. For the same molecule, in assay [1], the “inhibition rate (%) at 3 μM” value is 87%.

For `CCN(CC)CCNC1=NC(=O)S/C1=C\C1CCN(Cc2ccc(C(F)(F)F)cc2C(F)(F)F)CC1` [Example 9, (5Z)-5-({1-[2,4-bis(trifluoromethyl)benzyl]piperidin-4-yl}methylidene)-4-{[2-(diethylamino)ethyl]amino}-1,3-thiazol-2(5H)-one dihydrochloride], the inhibition at 30 µM in assay [2] was determined as 107%. In addition, the inhibition at 3 µM in assay [1] is 88%. In the case of `CNC1=NC(=O)S/C1=C\[C@@H]1C[C@H]2CC[C@@H](C1)N2Cc1ccc(C(F)(F)F)cc1C(F)(F)F` [Example 15, (5Z)-5-({(3-exo)-8-[2,4-bis(trifluoromethyl)benzyl]-8-azabicyclo[3.2.1]oct-3-yl}methylidene)-4-(methylamino)-1,3-thiazol-2(5H)-one], in assay [2], the inhibition at 30 µM stood at 102%. Moreover, the inhibition at 3 µM in assay [1] was 88%. For the molecule `C#CCNC1=NC(=O)S/C1=C\C1CCN(Cc2ccc(C(F)(F)F)cc2C(F)(F)F)CC1` [Example 16, (5Z)-5-({1-[2,4-bis(trifluoromethyl)benzyl]piperidin-4-yl}methylidene)-4-(prop-2-yn-1-ylamino)-1,3-thiazol-2(5H)-one hydrochloride], the inhibition at 30 µM in assay [2] was determined as 112%. In addition, the inhibition at 3 µM in assay [1] was found to be 89%. On to `O=C1N=C(NC2COC2)/C(=C/C2CCN(Cc3ccc(C(F)(F)F)cc3C(F)(F)F)CC2)S1` [Example 20, (5Z)-5-({1-[2,4-bis(trifluoromethyl)benzyl]piperidin-4-yl}methylidene)-4-(oxetan-3-ylamino)-1,3-thiazol-2(5H)-one], for which the inhibition at 30 µM in assay [2] is 105%. Further, the inhibition at 3 µM in assay [1] came out at 95%. As for `C#CCNC1=NC(=O)S/C1=C\C1CCN(Cc2ccc(Cl)cc2C(F)(F)F)CC1` [Example 24, (5Z)-5-({1-[4-chloro-2-(trifluoromethyl)benzyl]piperidin-4-yl}methylidene)-4-(prop-2-yn-1-ylamino)-1,3-thiazol-2(5H)-one fumarate], in assay [2], the inhibition at 30 µM stood at 105%. Also, the inhibition at 3 µM in assay [1] is 92%.

On to `CC(C)(O)CNC1=NC(=O)S/C1=C\C1CCN(Cc2ccc(C(F)(F)F)cc2C(F)(F)F)CC1` [Example 31, (5Z)-5-({1-[2,4-bis(trifluoromethyl)benzyl]piperidin-4-yl}methylidene)-4-[(2-hydroxy-2-methylpropyl)amino]-1,3-thiazol-2(5H)-one], for which the “inhibition rate (%) at 30 μM” value in assay [2] was 101%. Moreover, the “inhibition rate (%) at 3 μM” value in assay [1] is 87%. As to `CNC1=NC(=O)S/C1=C\C1CCN(Cc2ccc(C(F)(F)F)cc2C(F)(F)F)CC1` [Example 37, (5Z)-5-({1-[2,4-bis(trifluoromethyl)benzyl]piperidin-4-yl}methylidene)-4-(methylamino)-1,3-thiazol-2(5H)-one fumarate], the inhibition at 30 µM in assay [2] worked out at 109%. For the molecule `COCCOCCNC1=NC(=O)S/C1=C\C1CCN(Cc2ccc(C(F)(F)F)cc2C(F)(F)F)CC1` [Example 39, (5Z)-5-({1-[2,4-bis(trifluoromethyl)benzyl]piperidin-4-yl}methylidene)-4-{[2-(2-methoxyethoxy)ethyl]amino}-1,3-thiazol-2(5H)-one], the inhibition at 30 µM in assay [2] worked out at 106%. The inhibition at 3 µM in assay [1] was found to be 85%. As for `C#CCNC1=NC(=O)S/C1=C\C1CCN(Cc2ccc(C#N)cc2C(F)(F)F)CC1` [Example 40, 4-[(4-{(Z)-[2-oxo-4-(prop-2-yn-1-ylamino)-1,3-thiazol-5(2H)-ylidene]methyl}piperidin-1-yl)methyl]-3-(trifluoromethyl)benzonitrile], the inhibition at 30 µM in assay [2] amounted to 73%. The inhibition at 3 µM in assay [1] was found to be 62%.

For `O=C1N=C(NC2CCOC2)/C(=C/C2CCN(Cc3ccc(C(F)(F)F)cc3C(F)(F)F)CC2)S1` (stereo not shown) [Example 43, (5Z)-5-({1-[2,4-bis(trifluoromethyl)benzyl]piperidin-4-yl}methylidene)-4-(tetrahydrofuran-3-ylamino)-1,3-thiazol-2(5H)-one 0.5 fumarate], the inhibition at 30 µM in assay [2] was determined as 106%. Further, in assay [1], the inhibition at 3 µM is 87%. The corresponding values for `CCN(CC)CCOCCNC1=NC(=O)S/C1=C\C1CCN(Cc2ccc(C(F)(F)F)cc2C(F)(F)F)CC1` [Example 47, (5Z)-5-({1-[2,4-bis(trifluoromethyl)benzyl]piperidin-4-yl}methylidene)-4-({2-[2-(diethylamino)ethoxy]ethyl}amino)-1,3-thiazol-2(5H)-one ditosylate] are 108% and 90%. As to `O=C1N=C(NCC(O)CO)/C(=C/C2CCN(Cc3ccc(C(F)(F)F)cc3C(F)(F)F)CC2)S1` (stereo not shown) [Example 56, (5Z)-5-({1-[2,4-bis(trifluoromethyl)benzyl]piperidin-4-yl}methylidene)-4-[(2,3-dihydroxypropyl)amino]-1,3-thiazol-2(5H)-one], the inhibition at 30 µM in assay [2] was determined as 106%. In addition, the inhibition at 3 µM in assay [1] was 91%. On to `CN(CCO)CCNC1=NC(=O)S/C1=C\C1CCN(Cc2ccc(C(F)(F)F)cc2C(F)(F)F)CC1` [Example 58, (5Z)-5-({1-[2,4-bis(trifluoromethyl)benzyl]piperidin-4-yl}methylidene)-4-({2-[(2-hydroxyethyl)(methyl)amino]ethyl}amino)-1,3-thiazol-2(5H)-one ½fumarate], for which, in assay [2], the inhibition at 30 µM turned out to be 110%. The inhibition at 3 µM in assay [1] was found to be 91%. Consider `C#CCNC1=NC(=O)S/C1=C\C1CCN(Cc2ccc(C(F)(F)F)cc2Cl)CC1` [Example 59, (5Z)-5-({1-[2-chloro-4-(trifluoromethyl)benzyl]piperidin-4-yl}methylidene)-4-(prop-2-yn-1-ylamino)-1,3-thiazol-2(5H)-one fumarate], for which the inhibition at 30 µM in assay [2] worked out at 49%. In addition, the inhibition at 3 µM in assay [1] was 67%. Consider `CC(C)(O)C#CCNC1=NC(=O)S/C1=C\C1CCN(Cc2ccc(C(F)(F)F)cc2C(F)(F)F)CC1` [Example 87, (5Z)-5-({1-[2,4-bis(trifluoromethyl)benzyl]piperidin-4-yl}methylidene)-4-[(4-hydroxy-4-methylpent-2-yn-1-yl)amino]-1,3-thiazol-2(5H)-one], for which the inhibition at 3 µM in assay [1] came to 88%.
